From paper PMC7600127, “Peptide-Based TNF-α-Binding Decoy Therapy Mitigates Lipopolysaccharide-Induced Liver Injury in Mice” (Pharmaceuticals, 2020)

Tested on: LPS-induced liver injury
Experiment: Exogenous TNF-α counteraction of SEM18 in LPS-treated mice
Assay type: in vivo, Balb/cJ mice
Conditions: LSEM + TNF-α group vs LSEM group; TNF-α 0.3 mg/kg then 3 x 0.15 mg/kg i.p. with SEM18; 24 h after LPS 15 mg/kg; n = 5
Method: Exogenous TNF-α (recombinant mouse TNF-α; R&D Systems, Minneapolis, MN, USA) was used to confirm whether the therapeutic effects of SEM18 peptide were mediated by decreasing TNF-α binding to TNFR1. A set of mice (n = 5, designated as the LSEM + TNF-α group) were treated with LPS as described earlier. Two hours after LPS, exogenous TNF-α (0.3 mg/kg i.p.) was administered, followed by SEM18 (0.3 mg/kg, i.p.). Supplemental doses of exogenous TNF-α administration (0.15 mg/kg, i.p.) and SEM18 (0.15 mg/kg, i.p.) were administered every 2 h three times. These mice were closely monitored for 24 h (starting from LPS administration). All mice survived the experiment. […]
Figure 7 Exogenous tumor necrosis factor (TNF)-α counteracts the effects of SEM18 peptide. (A) Binding of TNF-α to TNF receptor 1, as measured at 24 h after lipopolysaccharide (LPS) administration using immunofluorescence staining of proximity ligation assay (PLA). (B) Plasma concentrations of aspartate aminotransferase (AST) and alanine aminotransferase (ALT) and the wet/dry (W/D) weight ratio of the liver tissues, as measured at 24 h after LPS administration. […] For apoptosis analysis, liver tissues were assayed using the terminal deoxynucleotidyl transferase dUTP nick-end labeling (TUNEL) method and the mean TUNEL-positive cell in liver tissues (per 0.25 mm^2) was calculated, as measured at 24 h after LPS administration. […]

recombinant mouse TNF-α [exogenous TNF-α]
effect of exogenous TNF-α on the therapeutic effects of SEM18 peptide: counteracting the therapeutic effects of SEM18 peptide
